Our source for the logP values is the OPERA property sets (Mansouri et al. 2018).

Molecules are shown by their SMILES. Where a SMILES comes first, the peptide text is derived from it.

The logP is the decadic logarithm of the partition coefficient of the neutral form, usually between octanol and water. Lower therefore signals a more hydrophilic compound. In turn, `Clc1ccc(Cl)c(-c2c(Cl)c(Cl)c(Cl)c(Cl)c2Cl)c1` had a logP of 7.93.
`Clc1ccc(-c2c(Cl)ccc(Cl)c2Cl)c(Cl)c1Cl` registered a logP of 7.04.
To `CNC(=O)OCc1c2c(n3c1C(OC(C)=O)CC3)C(=O)C(C)=C(OC)C2=O` (stereo unspecified) belongs 2.39.
To `O=c1nc(N=CN2CCCC2)ccn1C1OC(CO)C(O)C1O` (stereo unspecified) belongs -1.15; to `COCC(O)Cn1ncc([N+](=O)[O-])n1` (stereo unspecified), -0.07; to `COC1CC(OC2CCC3(C)C(CCC4C3CCC3(C)C(C5=CC(=O)OC5)C(OC(C)=O)CC43OC(C)=O)C2)OC(C)C1O` (stereo unspecified), 2.95.
To `Cc1ncc([N+](=O)[O-])n1CC#N` belongs -0.07; to `CC(C)(C)C(=O)OCCOCn1cnc2c(=O)[nH]c(N)nc21`, 0.3; to `O=C(NCO)c1c(I)c(C(=O)NCCO)c(I)c(N(CC(O)CO)C(=O)C(O)CO)c1I` (stereo unspecified), -2.65.
`COC(=O)CNC(=O)C1(O)C(C)CC2C3CCC4=CC(=O)C=CC4(C)C3(F)C(O)CC21C` (stereo unspecified) showed a logP of 1.69.
To `Cc1cc(=O)[nH]c(=O)[nH]1` belongs -0.77; to `CC1=NCCC1`, 1.87.
To `CN(C)N=Nc1ccc([N+](=O)[O-])cc1` belongs 3.25.
To `Cc1nc2sccn2c(=O)c1CCN1CCC(=C(c2ccc(F)cc2)c2ccc(F)cc2)CC1` belongs 5.2; to `C=CCC1CN(C)CCC1(OC(=O)CC)c1ccccc1` (stereo unspecified), 2.97.
For the compound `OCCOc1ccc(Cl)cc1`, the lipophilicity (logP) was determined as 1.99.
To `O=C(O)C(Cc1ccc(O)cc1)n1cccc1` (stereo unspecified) belongs 1.56; to `O=C(Cn1c(=O)sc2ccc(Cl)cc21)N1CC[N+]([O-])(CCO)CC1`, 0.05; to `CC1CC2C3CCC4=CC(=O)C=CC4(C)C3(F)C(O)CC2(C)C1(O)C(=O)NCCc1ccccc1` (stereo unspecified), 3.66.
To `CC1CC2C3CCC4=CC(=O)C=CC4(C)C3(F)C(O)CC2(C)C1(O)C(N)=O` (stereo unspecified) belongs 1.41.
To `COCC(Cn1ccnc1[N+](=O)[O-])OC(C)=O` (stereo unspecified) belongs -0.04; to `CC(C)CCNC(=O)C1(O)C(C)CC2C3CCC4=CC(=O)C=CC4(C)C3(F)C(O)CC21C` (stereo unspecified), 3.74; to `CC(=O)NC(Cc1ccccc1)C(=O)NC(CCC(=O)O)C(=O)NC(Cc1ccccc1)C(N)=O` (stereo not drawn) (Ac-Phe-Glu-Phe-NH2; configuration not given here), 0.65.
The compound `Cc1cccc(C)c1N` returned a log partition coefficient (logP) of 1.84.
The compound `CCOC(=O)C(NC(=O)CCCCSc1[nH]cnc2ncnc1-2)c1ccccc1` (stereo unspecified) showed a log partition coefficient (logP) of 1.13.
To `CCOC(=O)C(C)Oc1ccc(Oc2cnc3cc(F)ccc3n2)cc1` (stereo unspecified) belongs 3.65.
Turning to `CNC(=O)OCc1ccc(Cl)cc1`, the logP was 2.42.
To `Cc1n[nH]c(C(=O)N2CCCC2)c1[N+](=O)[O-]` belongs 0.25.
To `COCCOCC1COC(Cn2cncn2)(c2ccc(Cl)cc2Cl)O1` (stereo unspecified) belongs 2.03; to `Cc1c(Cl)c(Cl)c(Cl)c(Cl)c1Cl`, 5.62.
To `CC(OCc1cn(C)c(C=NO)n1)C(C)(C)C` (stereo unspecified) belongs 2.53; to `CCCCCCCOc1ccccc1NC(=O)OCCN1CCOCC1`, 4.51; to `Nc1ccn(C2OC3COC2C3O)c(=O)n1` (stereo unspecified), -1.64.
In turn, `C#CCOc1c(Cl)cc(NC=NOCC#N)cc1Cl` registered a logP of 3.
For `CN1C(=O)CN=C(c2ccccc2Cl)c2cc([N+](=O)[O-])ccc21`, the logP came out at 2.56.
In turn, `CC(=O)OC1CC(OC2C(O)CC(OC3CCC4(C)C(CCC5C4CC(O)C4(C)C(C6=CC(=O)OC6)CCC54O)C3)OC2C)OC(C)C1OC1CC(O)C(O)C(C)O1` (stereo unspecified) registered a logP of 2.
To `CCc1ncc([N+](=O)[O-])n1C` belongs 0.68; to `C=CCN(C)N=Nc1ccccc1C(N)=O`, 2.91.
To `Cc1cn(C2CC(N=[N+]=[N-])C(COC(=O)CCCNC(=O)C34CC5CC(CC(C5)C3)C4)O2)c(=O)[nH]c1=O` (stereo unspecified) belongs 2.47; to `COCCNC(=O)C(F)(F)Cn1cnc([N+](=O)[O-])n1`, -0.15.
To `COC(=O)C(C#N)=NNc1ccc(S(=O)(=O)C(F)(F)F)cc1` belongs 4.22; to `Clc1cc(Cl)c(Cl)c(-c2cc(Cl)cc(Cl)c2Cl)c1`, 7.07.
Take `O=C1C(=O)N(c2ccccc2)C(=O)c2ccccc21`: the log partition coefficient (logP) came to 1.14.
To `Cc1nc(Br)c([N+](=O)[O-])n1C` belongs 0.87; to `O=c1cccccc1`, 0.26; to `CSCCC(NC(C)=O)C(=O)NC(C(N)=O)C(C)C` (stereo unspecified), -0.28.
For the compound `CCCN1CC(NS(=O)(=O)N(CC)CC)C=C2c3cc(O)ccc3CCC21` (stereo unspecified), the logP is 2.63.
To `Cc1nnc[nH]1` belongs -0.55; to `COC(=O)c1ccc2[nH]ccc2c1`, 2.58.
To `O=c1nc(N=CN2CCOCC2)ccn1C1CC(O)C(CO)O1` (stereo unspecified) belongs -1.54; to `CC(C)(C)C(=O)C(C#N)=NNc1cc(C(F)(F)F)cc(C(F)(F)F)c1`, 5.44.
To `CSCCCNC(=O)C(F)(F)Cn1cnc([N+](=O)[O-])n1` belongs 0.76; to `C#CCOc1c(Cl)cc(NC=NOC(C)C)cc1Cl`, 3.9.
As to `CCCCC(NC(Cc1ccccc1)C(=O)N1CCC(OCOC)CC1)C(=O)NC(CC1CCCCC1)C(O)CC(C(=O)NCCC[N+]1([O-])CCOCC1)C(C)C` (stereo unspecified), the logP amounted to 3.6.
To `O=c1[nH]c(Nc2ccccc2)nc2c1ncn2CCO` belongs 0.83; to `CCCc1ccc(OCC(C)O)c2c(=O)cc(C(=O)O)oc12` (stereo unspecified), 3.
To `O=C(O)c1c(Br)cccc1Br` belongs 3.58.
To `O=C(O)CCCCC(S)CCS` (stereo unspecified) belongs 2.41; to `CCC(=O)C(CS(=O)(=O)c1ccccc1)c1ccccc1` (stereo unspecified), 1.82.
In turn, `CC(C)(C)NC(=O)C1CN(C(=O)OCc2ccccc2)CCN1CC(O)CC(Cc1ccccc1)C(=O)NC1c2ccccc2CC1O` (stereo unspecified) returned a logP of 4.67.
To `CNC(Cc1ccccc1)C(=O)O` (stereo unspecified) belongs -1.53; to `COC1(NC(=O)CSC(F)F)C(=O)N2C(C(=O)OCOC(=O)C(C)(C)C)=C(CSc3nnnn3C)CSC21` (stereo unspecified), 2.31; to `CCC(=O)C1(c2cccc(OC(=O)OC)c2)CCN(C)CC1`, 0.75.
To `O=C1C(Br)=C(N2CC2)C(=O)C(Br)=C1N1CC1` belongs 2.03; to `O=[N+]([O-])c1nccn1CCC(O)CO` (stereo unspecified), -0.9.
To `Cc1cccc(OCCO)c1` belongs 1.76; to `CCCCCCNC(=O)C1(O)C(C)CC2C3CCC4=CC(=O)C=CC4(C)C3(F)C(O)CC21C` (stereo unspecified), 4.54; to `COCCn1cnc2c(=O)[nH]c(Nc3ccccc3)nc21`, 1.2.
`Clc1ccc(-c2c(Cl)c(Cl)c(Cl)c(Cl)c2Cl)cc1` gave a log partition coefficient (logP) of 7.31.
To `O=C(O)CCCCCNCCc1ccccc1` belongs -1.3; to `CC(=O)C12OC(C)(c3ccc(F)cc3)OC1CC1C3CCC4=CC(=O)CCC4(C)C3CCC12C` (stereo unspecified), 5.7; to `Cc1ccc(NC(=O)c2[nH]nc(C)c2[N+](=O)[O-])cc1`, 2.34.
To `CNC(=C[N+](=O)[O-])NCCSCc1nccs1` belongs -0.15; to `CCN1C(=O)C(=O)c2c(Cl)cccc2C1=O`, 1.43.
To `CC(=O)NC(Cc1ccccc1)C(=O)NC(CC(=O)O)C(=O)NC(CC(C)C)C(N)=O` (stereo not drawn) (Ac-Phe-Asp-Leu-NH2; configuration not given here) belongs 0.39; to `O=[N+]([O-])C=C1NCCN1c1ccc(Cl)nc1`, -0.23; to `Cc1cccc(C)c1NC(=O)c1ccc(CN2CCOCC2)cc1`, 2.
`CCOC(CNC(=O)C1(O)C(C)CC2C3CCC4=CC(=O)C=CC4(C)C3(F)C(O)CC21C)OCC` (stereo unspecified) gave a log partition coefficient (logP) of 2.65.
Take `C#CC1(OC(=O)C2=CN(C)C=CC2)CCC2C3CCC4=CC(=O)CCC4(C)C3CCC21C` (stereo unspecified): the logP stood at 4.49.
To `NC1C2CCC1c1ccccc1C2` (stereo unspecified) belongs 1.63; to `CCCOc1ccc(NC(=O)OCCN2CCOCC2)cc1`, 2.78.
To `CCCOc1ccccc1NC(=O)OCCN1CCOCC1` belongs 2.78; to `CNC(=NC#N)Nc1cccc(-c2csc(N=C(N)N)n2)c1`, 1.6.
To `CN(C)N=Nc1cccc(C(N)=O)c1` belongs 1.3; to `COc1cc(S(C)=O)ccc1-c1nc2ccccc2[nH]1` (stereo unspecified), 2.15.
In turn, `Cc1[nH]c2cccc3c2c1CC1NCC(C(=O)NC2(C(C)C)OC4(O)C5CCCN5C(=O)C(C(C)C)N4C2=O)C=C31` (stereo unspecified) yielded a log partition coefficient (logP) of 3.15.
To `C#CCOc1c(Cl)cc(NC=NOCSC)cc1Cl` belongs 3.6; to `Cc1ccccc1C(=O)NN(C(=O)c1ccccc1Cl)C(C)(C)C`, 2.91; to `CC1CC2C3CCC4=CC(=O)C=CC4(C)C3(F)C(O)CC2(C)C1(O)C(=O)NC1CCCCC1` (stereo unspecified), 3.54.
Regarding `CC1CC2C3CCC4=CC(=O)C=CC4(C)C3(F)C(O)CC2(C)C1(O)C(=O)NC(C)(C)C` (stereo unspecified), the logP came out at 3.2.
Turning to `COc1ccc2cc(C(C)C(=O)OCC(=O)N(C)C)ccc2c1` (stereo unspecified), the logP is 2.05.
Take `OCC1CCC(n2cnc3cncnc32)O1` (stereo unspecified): the log partition coefficient (logP) was -0.47.
To `O=[N+]([O-])c1c(Cl)c(Cl)cc(Cl)c1Cl` belongs 4.38; to `Nc1ncnc2c1nc(F)n2C1CCC(CO)O1` (stereo unspecified), -0.03.
To `CCCCCCCC(=O)OC(C(=O)NC1C(=O)N2C(C(=O)O)=C(C)CSC12)c1ccccc1` (stereo unspecified) belongs 3.54; to `N#CC(C#N)=NNc1ccccc1Br`, 3.11.
To `NC(=O)c1ccccc1N=NN1CCC1` belongs 2.91; to `O=[N+]([O-])C=C1NCCN1Cc1ccc(Cl)cc1`, 0.99; to `O=Cn1c2c(c3ccccc31)CCNC2`, 0.26.
Take `CC(=O)NC(Cc1ccccc1)C(=O)NC(CCCCN)C(N)=O` (stereo unspecified): the logP was determined as 0.14.
To `CC(C)(C)c1ccc2c(c1)OCCOCCOCCOCCOCCO2` belongs 1.71; to `CCC1CC(C(=O)NC(C(C)O)C2OC(SC)C(O)C(O)C2O)N(C)C1` (stereo unspecified), -0.4; to `CSC1=NCCN1c1ccc([N+](=O)[O-])o1`, 1.19.
To `O=[N+]([O-])c1ncn[nH]1` belongs -0.33.
The compound `COC(=O)n1cc(F)c(=O)[nH]c1=O` returned a logP of -0.68.
To `C#CCOc1c(Cl)cc(NC=NOCOC)cc1Cl` belongs 3.2.
